Values of other authors in patent US12296348B2, “Electrostatic precipitator” (TECHNISCHE UNIVERSITÄT DORTMUND, priority 2019, dated 2025).

Conditions: solubility limited in terms of its bioavailability

BCS classification: Class II
Structure (SMILES): COc1ccc2cc([C@H](C)C(=O)O)ccc2c1 [unprocessed naproxen, naproxen]
